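GI50 is the concentration that inhibits growth by half. TGI: total growth inhibition.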
Assays:
Assay in all cases: NCI anticancer screen, dose series, 384-well format
[1] = tested on: T-47D breast
[2] = tested on: U251 glioblastoma
[3] = tested on: IGROV1 ovarian
[4] = tested on: OVCAR-4 ovarian
[5] = tested on: SN12C renal
[6] = tested on: SK-MEL-28 melanoma
[7] = tested on: SNB-19 CNS
[8] = tested on: SK-OV-3 ovarian
[9] = tested on: UACC-257 melanoma
[10] = tested on: KM12 colon
[11] = tested on: HOP-62 NSCLC
[12] = tested on: SF-539 CNS
[13] = tested on: HOP-92 NSCLC
[14] = tested on: 786-0 renal
[15] = tested on: SK-MEL-2 melanoma
[16] = tested on: NCI-H322M lung
[17] = tested on: HCT-15 colon
[18] = tested on: TK-10 renal
[19] = tested on: SR leukemia
[20] = tested on: PC-3 prostate
[21] = tested on: NCI-H522 lung
[22] = tested on: UACC-62 melanoma
[23] = tested on: HL-60(TB) leukemia
[24] = tested on: MDA-MB-435 melanoma
[25] = tested on: HT29 colon
[26] = tested on: M14 melanoma
[27] = tested on: K-562 leukemia
[28] = tested on: DU-145 prostate
[29] = tested on: SNB-75 CNS
[30] = tested on: UO-31 renal
[31] = tested on: NCI-H460 NSCLC
[32] = tested on: SW-620 colon
[33] = tested on: SF-295 CNS
[34] = tested on: SF-268 CNS
[35] = tested on: MDA-MB-231 breast
[36] = tested on: OVCAR-3 ovarian
[37] = tested on: EKVX NSCLC
[38] = tested on: CAKI-1 renal
[39] = tested on: MOLT-4 leukemia
[40] = tested on: RXF 393 renal
[41] = tested on: OVCAR-5 ovarian
[42] = tested on: HCT-116 colon
[43] = tested on: HS 578T breast
[44] = tested on: A549 NSCLC
[45] = tested on: MDA-MB-468 breast
[46] = tested on: MALME-3M melanoma
[47] = tested on: COLO 205 colon
[48] = tested on: BT-549 breast
[49] = tested on: SK-MEL-5 melanoma
[50] = tested on: NCI-H23 lung
[51] = tested on: NCI-H226 lung
[52] = tested on: OVCAR-8 ovarian
[53] = tested on: MCF7 breast

Q: Which GI50 [1] does the source give for `C=CCn1c(=O)c2cnc(Nc3ccc(N4CCN(C)CC4)cc3)nc2n1-c1ccc2c(n1)[C@@](O)(CC)CC2` here?
A: Its GI50 is 5810 nM.

Q: And the TGI [1]?
A: Its TGI is 21800 nM.

Q: And the GI50 [2]?
A: The GI50 was 497 nM.

Q: What about the TGI [2] of the same molecule?
A: Its TGI is 11400 nM.

Q: And the GI50 [3]?
A: The GI50 was 95.3 nM.

Q: And the TGI [3]?
A: Its TGI is 1350 nM.

Q: And the GI50 [4]?
A: The GI50 was 196 nM.

Q: And the TGI [4]?
A: The TGI was 1040 nM.

Q: What about the GI50 [5] of the same molecule?
A: The GI50 was 328 nM.

Q: What about the TGI [5] of the same molecule?
A: The TGI was 3890 nM.

Q: What about the GI50 [6] of the same molecule?
A: Its GI50 is 2880 nM.

Q: What about the TGI [6] of the same molecule?
A: Its TGI is 14300 nM.

Q: What about the GI50 [7] of the same molecule?
A: Its GI50 is 1350 nM.

Q: What about the TGI [7] of the same molecule?
A: Its TGI is over 100000 nM.

Q: What about the GI50 [8] of the same molecule?
A: Its GI50 is 174 nM.

Q: And the TGI [8]?
A: Its TGI is 1570 nM.

Q: And the GI50 [9]?
A: The GI50 was 1950 nM.

Q: What about the TGI [9] of the same molecule?
A: The TGI was 11300 nM.

Q: And the GI50 [10]?
A: Its GI50 is 1130 nM.

Q: And the TGI [10]?
A: Its TGI is 7260 nM.

Q: And the GI50 [11]?
A: Its GI50 is 401 nM.

Q: And the TGI [11]?
A: Its TGI is 2150 nM.

Q: What about the GI50 [12] of the same molecule?
A: The GI50 was 49.5 nM.

Q: What about the TGI [12] of the same molecule?
A: Its TGI is 194 nM.

Q: And the GI50 [13]?
A: The GI50 was 130 nM.

Q: What about the TGI [13] of the same molecule?
A: Its TGI is 13400 nM.

Q: What about the GI50 [14] of the same molecule?
A: The GI50 was 243 nM.

Q: What about the TGI [14] of the same molecule?
A: The TGI was 964 nM.

Q: What about the GI50 [15] of the same molecule?
A: Its GI50 is 124 nM.

Q: What about the TGI [15] of the same molecule?
A: Its TGI is 352 nM.

Q: And the GI50 [16]?
A: Its GI50 is 206 nM.

Q: What about the TGI [16] of the same molecule?
A: The TGI was 2030 nM.

Q: And the GI50 [17]?
A: The GI50 was 440 nM.

Q: What about the TGI [17] of the same molecule?
A: Its TGI is 1800 nM.

Q: What about the GI50 [18] of the same molecule?
A: The GI50 was 160 nM.

Q: What about the TGI [18] of the same molecule?
A: The TGI was 1560 nM.

Q: And the GI50 [19]?
A: The GI50 was 103 nM.

Q: And the TGI [19]?
A: Its TGI is 224 nM.

Q: What about the GI50 [20] of the same molecule?
A: The GI50 was 1040 nM.

Q: And the TGI [20]?
A: Its TGI is 20300 nM.

Q: And the GI50 [21]?
A: The GI50 was 130 nM.

Q: And the TGI [21]?
A: Its TGI is 286 nM.

Q: What about the GI50 [22] of the same molecule?
A: Its GI50 is 371 nM.

Q: What about the TGI [22] of the same molecule?
A: Its TGI is 14700 nM.

Q: What about the GI50 [23] of the same molecule?
A: Its GI50 is 110 nM.

Q: And the TGI [23]?
A: The TGI was 233 nM.

Q: And the GI50 [24]?
A: Its GI50 is 160 nM.

Q: And the TGI [24]?
A: The TGI was 374 nM.

Q: What about the GI50 [25] of the same molecule?
A: Its GI50 is 211 nM.

Q: And the TGI [25]?
A: The TGI was 536 nM.

Q: And the GI50 [26]?
A: The GI50 was 58.4 nM.

Q: And the TGI [26]?
A: Its TGI is 863 nM.

Q: What about the GI50 [27] of the same molecule?
A: Its GI50 is 165 nM.

Q: And the TGI [27]?
A: Its TGI is 354 nM.

Q: And the GI50 [28]?
A: Its GI50 is 241 nM.

Q: And the TGI [28]?
A: The TGI was 3890 nM.

Q: What about the GI50 [29] of the same molecule?
A: The GI50 was 1070 nM.

Q: And the TGI [29]?
A: The TGI was 8160 nM.

Q: What about the GI50 [30] of the same molecule?
A: The GI50 was 307 nM.

Q: What about the TGI [30] of the same molecule?
A: The TGI was 1440 nM.

Q: And the GI50 [31]?
A: Its GI50 is 139 nM.

Q: And the TGI [31]?
A: The TGI was 806 nM.

Q: And the GI50 [32]?
A: Its GI50 is 280 nM.

Q: What about the TGI [32] of the same molecule?
A: The TGI was 1950 nM.

Q: What about the GI50 [33] of the same molecule?
A: The GI50 was 348 nM.

Q: What about the TGI [33] of the same molecule?
A: The TGI was 3540 nM.

Q: What about the GI50 [34] of the same molecule?
A: Its GI50 is 689 nM.

Q: And the TGI [34]?
A: The TGI was 13800 nM.

Q: What about the GI50 [35] of the same molecule?
A: Its GI50 is 395 nM.

Q: What about the TGI [35] of the same molecule?
A: Its TGI is 10100 nM.

Q: What about the GI50 [36] of the same molecule?
A: The GI50 was 126 nM.

Q: What about the TGI [36] of the same molecule?
A: The TGI was 371 nM.

Q: And the GI50 [37]?
A: Its GI50 is 324 nM.

Q: What about the TGI [37] of the same molecule?
A: Its TGI is 2510 nM.

Q: And the GI50 [38]?
A: Its GI50 is 64.4 nM.

Q: What about the TGI [38] of the same molecule?
A: Its TGI is 12700 nM.

Q: What about the GI50 [39] of the same molecule?
A: Its GI50 is 30.5 nM.

Q: And the TGI [39]?
A: Its TGI is 121 nM.

Q: What about the GI50 [40] of the same molecule?
A: Its GI50 is 26 nM.

Q: And the TGI [40]?
A: Its TGI is 106 nM.

Q: And the GI50 [41]?
A: The GI50 was 920 nM.

Q: And the TGI [41]?
A: The TGI was 14400 nM.

Q: What about the GI50 [42] of the same molecule?
A: The GI50 was 268 nM.

Q: And the TGI [42]?
A: The TGI was 8680 nM.

Q: And the GI50 [43]?
A: Its GI50 is 83 nM.

Q: And the TGI [43]?
A: Its TGI is 445 nM.

Q: What about the GI50 [44] of the same molecule?
A: The GI50 was 1830 nM.

Q: And the TGI [44]?
A: The TGI was 12300 nM.

Q: And the GI50 [45]?
A: Its GI50 is 120 nM.

Q: And the TGI [45]?
A: Its TGI is 349 nM.

Q: What about the GI50 [46] of the same molecule?
A: Its GI50 is 101 nM.

Q: What about the TGI [46] of the same molecule?
A: The TGI was 484 nM.

Q: What about the GI50 [47] of the same molecule?
A: The GI50 was 349 nM.

Q: And the TGI [47]?
A: The TGI was 2020 nM.

Q: What about the GI50 [48] of the same molecule?
A: The GI50 was 137 nM.

Q: And the TGI [48]?
A: Its TGI is 348 nM.

Q: And the GI50 [49]?
A: Its GI50 is 172 nM.

Q: What about the TGI [49] of the same molecule?
A: The TGI was 453 nM.

Q: What about the GI50 [50] of the same molecule?
A: The GI50 was 78.5 nM.

Q: What about the TGI [50] of the same molecule?
A: The TGI was 257 nM.

Q: What about the GI50 [51] of the same molecule?
A: The GI50 was 1020 nM.

Q: What about the TGI [51] of the same molecule?
A: The TGI was 5550 nM.

Q: What about the GI50 [52] of the same molecule?
A: The GI50 was 288 nM.

Q: What about the TGI [52] of the same molecule?
A: The TGI was 1050 nM.

Q: And the GI50 [53]?
A: The GI50 was 218 nM.

Q: What about the TGI [53] of the same molecule?
A: Its TGI is 2190 nM.

Source: PubChem BioAssay (NCI)
